Reference: PMC11203919, “Heat Stress and Microbial Stress Induced Defensive Phenol Accumulation in Medicinal Plant Sparganium stoloniferum” (International Journal of Molecular Sciences, 2024)

Biological target: T1, SsC4H (Sparganium stoloniferum, UniProt A0AAU8GF87)
T1 construct: gene C4H; pYeDP60 in yeast WAT11 culture, not purified
Experiment: substrate feeding of yeast culture, LC-MS/MS of p-coumaric acid
Type: cell-based
Conditions: 0.5 mM substrate, 16 °C, 12 h; yeast WAT11

T1 sequence (A0AAU8GF87 entry or part of it): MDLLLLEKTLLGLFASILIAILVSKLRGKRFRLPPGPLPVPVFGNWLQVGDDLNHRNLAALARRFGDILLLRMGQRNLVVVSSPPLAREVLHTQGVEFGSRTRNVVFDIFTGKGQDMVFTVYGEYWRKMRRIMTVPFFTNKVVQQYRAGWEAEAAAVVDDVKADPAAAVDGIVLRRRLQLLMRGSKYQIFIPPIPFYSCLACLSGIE

`O=C(O)/C=C/c1ccccc1` [trans-cinnamic acid] was tested. Which “substrate feeding of yeast culture, LC-MS/MS of p-coumaric acid” value did it give?
The value was “Upon adding trans-cinnamic acid to the SsC4H-pYeDP60-WAT11 culture, hydroxylation occurred to produce p-coumaric acid”.
